PMC8351955, “Targeting Mycobacterium tuberculosis response to environmental cues for the development of effective antitubercular drugs” (PLoS Biology, 2021)
In brackets after ≈: the same amount, converted by molar mass. Several values for one entry are separate records, joined by “and”; a condition that tells them apart may be missing. Equal entries are not always repeated.

How the values were obtained:
[1] = Kinetic aqueous solubility; assay type: physicochemical; conditions: pH 7.4 phosphate buffered saline; read-out: kinetic aqueous solubility (S)
Description: (§1) Assays examining mouse and human liver microsomal stability, kinetic aqueous solubility, mouse and human plasma protein binding and stability, and human cytochrome P450 inhibition characteristics of the compounds were run by BioDuro (San Diego, CA), using standard protocols as previously described [37]. hERG inhibition assays were also performed by BioDuro.

[2] = tested on: macrophage phagosomal acidification in BMDMs; test: Phagosomal maturation assay, carboxyfluorescein beads (pH readout); assay type: cell-based, mouse; conditions: for 490 nm/450 nm, Average: average of 5 replicates
Description: Carboxyfluorescein (pH readout), DQ-BSA/Alexa Fluor 594 (AF594) (proteolysis readout), and BAC/AF594 (Cl^− readout) beads were generated essentially as previously described, except that 10,10′-Bis[3-carboxylpropyl]-9,9′-biacridinium dinitrate di-NHS ester (BAC-SE) was purchased from emp Biotech LLC. BMDMs were isolated from C57BL/6J mice (The Jackson Laboratory) and maintained as described above. A quantity of 2 × 10^5 macrophages/well were seeded into 96-well clear bottom black plates and utilized in assays 1 to 2 days post-seeding. […] Assay buffer consisted of PBS (pH 7.2), supplemented with 5% FBS, 5 mM dextrose, 1 mM CaCl2, 2.7 mM KCl, and 0.5 mM MgCl2 in the case of assays with the carboxyfluorescein or DQ-BSA/AF594 beads. For assays with the BAC/AF594 beads, assay buffer consisted of PBS (pH 7.2), supplemented with 5% FBS, 5 mM dextrose, 1 mM calcium acetate, 1.35 mM K2SO4, and 0.5 mM MgSO4 [9]. Sensor beads at approximately 2 to 5 beads/macrophage in appropriate assay buffer were finally added, with data acquisition on a Biotek Synergy H1 microplate reader with bottom read signal detection started within 2 to 3 minutes of bead addition. Excitation/emission wavelengths were 450 nm/520 nm and 490 nm/520 nm for carboxyfluorescein, 490 nm/520 nm for DQ-BSA, 365 nm/505 nm for BAC, and 590 nm/617 nm for AF594. Each experiment was run with a total of 3 to 5 replicate wells/condition, with temperature maintained at 37°C throughout the assay. Wells were read every 2 minutes for 2 hours for the carboxyfluorescein bead assays, every 2 minoutes for 4 hours for the DQ-BSA/AF594 bead assays, and every 1 minute for 2 hours for the BAC/AF594 bead assays. Analyses of the results were performed as previously described.

[3] = tested on: CYP3A4/5; test: Human cytochrome P450 inhibition, 3A4/5; assay type: in vitro ADME; conditions: read-out: % inhibition of CYP 3A4/5
[4] = tested on: J774 cells; test: Intracellular drug accumulation assay in J774 cells (LC-MS); conditions: 24 hours
[5] = molecular target: CYP2C19 (Homo sapiens, UniProt P33261); test: Human cytochrome P450 inhibition, 2C19; assay type: in vitro ADME; conditions: read-out: % inhibition of CYP 2C19
Sequence of CYP2C19 (P33261 whole entry): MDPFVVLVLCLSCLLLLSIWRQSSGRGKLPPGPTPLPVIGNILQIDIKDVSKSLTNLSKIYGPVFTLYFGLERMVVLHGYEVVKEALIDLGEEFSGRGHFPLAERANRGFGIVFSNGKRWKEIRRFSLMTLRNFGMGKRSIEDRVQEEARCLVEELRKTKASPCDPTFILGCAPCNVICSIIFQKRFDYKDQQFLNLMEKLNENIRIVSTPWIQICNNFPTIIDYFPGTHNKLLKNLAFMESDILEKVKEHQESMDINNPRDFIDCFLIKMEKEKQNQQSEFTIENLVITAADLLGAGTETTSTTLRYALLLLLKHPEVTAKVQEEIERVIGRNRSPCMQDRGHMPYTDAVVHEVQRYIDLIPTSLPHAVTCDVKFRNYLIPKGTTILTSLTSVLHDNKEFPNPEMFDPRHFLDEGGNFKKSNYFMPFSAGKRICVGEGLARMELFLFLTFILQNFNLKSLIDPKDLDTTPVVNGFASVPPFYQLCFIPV
Description: as §1

[6] = tested on: Mtb; test: Mtb growth assay in standard 7H9 medium (OD600); conditions: for OD600: Fig. 2F
Description: Bacterial growth was tracked by measuring OD600 every 3 days for 12 days. […] Bacterial growth was tracked by measurement of OD600 every 3 days over 12 days.

[7] = tested on: CDC1551(rv1405c′::GFP) reporter Mtb strain; test: microbe, parasite or virus in culture; assay type: cell-based, Mycobacterium tuberculosis; conditions: for NPA - rv1405c'::GFP, average: Fig 1D
[8] = Human plasma stability; assay type: in vitro ADME; conditions: 5-h incubation
Description: as §1

SMILES: CCSc1ncc(CN2CCN(c3nc4ccccc4o3)CC2)cn1 [C6, 2-(4-((2-(ethylthio)pyrimidin-5-yl)methyl)piperazin-1-yl)benzo[d]oxazole]
- solubility kinetic [1]: 76.4 µM (≈ 27.2 µg/mL)
- Effect on macrophage phagosomal acidification ([2]; 10 μM, uninfected BMDMs): did not alter
- 490 nm/450 nm, Average ([2]; time 0 minutes): 4.858
- 490 nm/450 nm, Average ([2]; time 2 minutes): 4.93
- 490 nm/450 nm, Average ([2]; time 4 minutes): 4.883
- 490 nm/450 nm, single replicates (Rep 1-5) ([2]; time 6 minutes): 4.9284 and 4.8623 and 4.895 and 4.851 and 4.867
- 490 nm/450 nm, Average ([2]; time 6 minutes): 4.881
- 490 nm/450 nm, single replicates (Rep 1-5) ([2]; time 8 minutes): 4.803 and 4.864 and 4.815 and 4.7957 and 4.8066
- 490 nm/450 nm, Average ([2]; time 8 minutes): 4.817
- 490 nm/450 nm, single replicates (Rep 1-5) ([2]; time 10 minutes): 4.783 and 4.786 and 4.81 and 4.727 and 4.764
- 490 nm/450 nm, Average ([2]; time 10 minutes): 4.774
- 490 nm/450 nm, single replicates (Rep 1-5) ([2]; time 12 minutes): 4.5604 and 4.6849 and 4.647 and 4.525 and 4.478
- 490 nm/450 nm, Average ([2]; time 12 minutes): 4.579
- 490 nm/450 nm, single replicates (Rep 1-5) ([2]; time 14 minutes): 4.45 and 4.492 and 4.497 and 4.303 and 4.234
- 490 nm/450 nm, Average ([2]; time 14 minutes): 4.395
- 490 nm/450 nm, single replicates (Rep 1-5) ([2]; time 16 minutes): 4.182 and 4.214 and 4.296 and 4.029 and 3.894
- 490 nm/450 nm, Average ([2]; time 16 minutes): 4.123
- 490 nm/450 nm, single replicates (Rep 1-5) ([2]; time 18 minutes): 3.914 and 3.991 and 4.055 and 3.796 and 3.692
- 490 nm/450 nm, Average ([2]; time 18 minutes): 3.89
- 490 nm/450 nm, single replicates (Rep 1-5) ([2]; time 20 minutes): 3.661 and 3.707 and 3.803 and 3.557 and 3.477
- 490 nm/450 nm, Average ([2]; time 20 minutes): 3.641
- 490 nm/450 nm, single replicates (Rep 1-5) ([2]; time 22 minutes): 3.443 and 3.455 and 3.57 and 3.319 and 3.292
- 490 nm/450 nm, Average ([2]; time 22 minutes): 3.416
- 490 nm/450 nm, single replicates (Rep 1-5) ([2]; time 24 minutes): 3.1867 and 3.242 and 3.389 and 3.087 and 3.065
- 490 nm/450 nm, Average ([2]; time 24 minutes): 3.194
- 490 nm/450 nm, single replicates (Rep 1-5) ([2]; time 26 minutes): 3.004 and 3.052 and 3.169 and 2.941 and 2.895
- 490 nm/450 nm, Average ([2]; time 26 minutes): 3.012
- 490 nm/450 nm, single replicates (Rep 1-5) ([2]; time 28 minutes): 2.852 and 2.904 and 3.023 and 2.803 and 2.7626
- 490 nm/450 nm, Average ([2]; time 28 minutes): 2.869
- 490 nm/450 nm, single replicates (Rep 1-5) ([2]; time 30 minutes): 2.719 and 2.762 and 2.859 and 2.651 and 2.679
- 490 nm/450 nm, Average ([2]; time 30 minutes): 2.734
- 490 nm/450 nm, single replicates (Rep 1-5) ([2]; time 32 minutes): 2.588 and 2.623 and 2.733 and 2.5744 and 2.581
- 490 nm/450 nm, Average ([2]; time 32 minutes): 2.62
- 490 nm/450 nm, single replicates (Rep 1-5) ([2]; time 34 minutes): 2.506 (2×) and 2.556 and 2.644 and 2.5507
- 490 nm/450 nm, Average ([2]; time 34 minutes): 2.552
- 490 nm/450 nm, single replicates (Rep 1-5) ([2]; time 36 minutes): 2.483 and 2.493 and 2.575 and 2.447 and 2.499
- 490 nm/450 nm, Average ([2]; time 36 minutes): 2.499
- 490 nm/450 nm, single replicates (Rep 1-5) ([2]; time 38 minutes): 2.411 and 2.458 and 2.4978 and 2.4066 and 2.452
- 490 nm/450 nm, Average ([2]; time 38 minutes): 2.445
- 490 nm/450 nm, single replicates (Rep 1-5) ([2]; time 40 minutes): 2.369 and 2.38 and 2.4986 and 2.406 and 2.442
- 490 nm/450 nm, Average ([2]; time 40 minutes): 2.419
- 490 nm/450 nm, single replicates (Rep 1-5) ([2]; time 42 minutes): 2.364 and 2.3783 and 2.434 and 2.346 and 2.427
- 490 nm/450 nm, Average ([2]; time 42 minutes): 2.3898
- 490 nm/450 nm, single replicates (Rep 1-5) ([2]; time 44 minutes): 2.319 and 2.337 and 2.405 and 2.355 and 2.4128
- 490 nm/450 nm, Average ([2]; time 44 minutes): 2.3655
- 490 nm/450 nm, Average ([2]; time 46 minutes): 2.351
- 490 nm/450 nm, Average ([2]; time 48 minutes): 2.35
- 490 nm/450 nm, Average ([2]; time 50 minutes): 2.351
- 490 nm/450 nm, Average ([2]; time 52 minutes): 2.342
- 490 nm/450 nm, Average ([2]; time 54 minutes): 2.342
- 490 nm/450 nm, Average ([2]; time 56 minutes): 2.334
- 490 nm/450 nm, Average ([2]; time 58 minutes): 2.337
- 490 nm/450 nm, Average ([2]; time 60 minutes): 2.3392
- 490 nm/450 nm, Average ([2]; time 62 minutes): 2.354
- 490 nm/450 nm, Average ([2]; time 64 minutes): 2.349
- 490 nm/450 nm, Average ([2]; time 66 minutes): 2.351
- 490 nm/450 nm, Average ([2]; time 68 minutes): 2.358
- 490 nm/450 nm, Average ([2]; time 70 minutes): 2.362
- 490 nm/450 nm, Average ([2]; time 72 minutes): 2.363
- 490 nm/450 nm, Average ([2]; time 74 minutes): 2.3781
- 490 nm/450 nm, Average ([2]; time 76 minutes): 2.3813
- 490 nm/450 nm, Average ([2]; time 78 minutes): 2.38
- 490 nm/450 nm, Average ([2]; time 80 minutes): 2.392
- 490 nm/450 nm, Average ([2]; time 82 minutes): 2.387
- 490 nm/450 nm, Average ([2]; time 84 minutes): 2.389
- 490 nm/450 nm, Average ([2]; time 86 minutes): 2.399
- 490 nm/450 nm, Average ([2]; time 88 minutes): 2.414
- 490 nm/450 nm, Average ([2]; time 90 minutes): 2.411
- 490 nm/450 nm, Average ([2]; time 92 minutes): 2.4274
- 490 nm/450 nm, Average ([2]; time 94 minutes): 2.4259
- 490 nm/450 nm, Average ([2]; time 96 minutes): 2.426
- 490 nm/450 nm, Average ([2]; time 98 minutes): 2.438
- 490 nm/450 nm, Average ([2]; time 100 minutes): 2.447
- 490 nm/450 nm, Average ([2]; time 102 minutes): 2.452
- 490 nm/450 nm, Average ([2]; time 104 minutes): 2.453
- 490 nm/450 nm, Average ([2]; time 106 minutes): 2.461
- 490 nm/450 nm, Average ([2]; time 108 minutes): 2.469
- 490 nm/450 nm, Average ([2]; time 110 minutes): 2.47
- 490 nm/450 nm, Average ([2]; time 112 minutes): 2.479
- 490 nm/450 nm, Average ([2]; time 114 minutes): 2.475
- 490 nm/450 nm, Average ([2]; time 116 minutes): 2.485
- 490 nm/450 nm, Average ([2]; time 118 minutes): 2.494
- 490 nm/450 nm, Average ([2]; time 120 minutes): 2.492
- inhibition at 10 µM [3]: < 1%
- Intracellular accumulation in J774 cells [4]: dose-dependent accumulation
- inhibition at 10 µM [5]: 30.3%
- Effect on Mtb growth in standard 7H9 media ([6]; 10 μM, OD600 over 12 days): no effect
- OD600 ([6]; day 3, average): 0.1933
- OD600 ([6]; day 3, individual replicates): 0.2 (2×) and 0.18
- OD600 ([6]; day 6, average): 0.3733
- OD600 ([6]; day 6, individual replicates): 0.38 (2×) and 0.36
- OD600 ([6]; day 9, average): 0.4933
- OD600 ([6]; day 9, individual replicates): 0.5 (2×) and 0.48
- OD600 ([6]; day 12, average): 0.6333
- OD600 ([6]; day 12, individual replicates): 0.64 (2×) and 0.62
- NPA - rv1405c'::GFP, average ([7]; 0.0390625 µM): 91.7667%
- NPA - rv1405c'::GFP, average ([7]; 0.078125 µM): 104.333%
- NPA - rv1405c'::GFP, average ([7]; 0.15625 µM): 97.8333%
- NPA - rv1405c'::GFP, average ([7]; 0.3125 µM): 95.1667%
- NPA - rv1405c'::GFP, average ([7]; 0.625 µM): 93.7333%
- NPA - rv1405c'::GFP, average ([7]; 1.25 µM): 103.333%
- NPA - rv1405c'::GFP, average ([7]; 2.5 µM): 124.667%
- NPA - rv1405c'::GFP, average ([7]; 5 µM): 141%
- NPA - rv1405c'::GFP, average ([7]; 10 µM): 137.333%
- NPA - rv1405c'::GFP, average ([7]; 20 µM): 161.5%
- activity at 10 µM ([7]; Mycobacterium tuberculosis, read-out: rv1405c'::GFP secondary assay NPA% at 10 µM compound): 137 ± 15%
- activity at 20 µM ([7]; Mycobacterium tuberculosis, read-out: rv1405c'::GFP secondary assay NPA% at 20 µM compound): 162 ± 3.5%
- remaining at 5 h [8]: 94.6%
